Measured values: patent US20230082968A1, “EXOGENOUS NITRIC OXIDE FOR IMPROVED SUSCEPTIBILITY AND LOWERED ANTIBIOTIC RESISTANCE IN RESISTANT RESPIRATORY BACTERIA” (The University of North Carolina at Chapel Hill, priority 2020, published 2023)
In brackets after ≈: the same amount, converted by molar mass. Entries after “also recorded” stand apart in the source; their conditions may differ.

Columns and labels:
ATCC MRSA = assay: Serial passaging resistance assay; format: cell-based, Methicillin-resistant S. aureus
Method: (§1) Bacteria at a final concentration of 10^6 CFU/mL in TSB were incubated with serial dilutions of COS/NO and/or tobramycin for 24 h. Growth was assessed by measuring absorbance at 600 nm. The wells that had the highest concentration of test agent and an OD600 corresponding to more than 10^8 CFU/mL were diluted to 10^6 cfu/mL in TSB and incubated with fresh solutions of COS/NO or tobramycin for 24 h. A single passage was defined as one exposure, incubation, and subsequent dilution. Bacteria were passaged for up to 70 days.

P. aeruginosa biofilms = assay: Biofilm pretreatment with nitric oxide, all tested biofilms; format: cell-based; settings: all tested P. aeruginosa biofilms incl. tobramycin-resistant strains, COS/NO at 25% MBEC for 4 h
Method: Bacteria were cultured to a concentration of 10^8 CFU/mL in TSB and diluted to 10^6 CFU/mL in 200 µL TSB in a 96 well plate. Plates were incubated with shaking for 3 days until a non-surface attached viscous aggregate formed that was easily separated from growth medium. Biofilms (100 µL) were removed, gently injected into PBS (200 µL) to remove loosely adhered planktonic cells, and added to a sterile 96 well plate. To the wells, PBS or test agent dissolved in PBS (100 µL) was added and incubated with shaking for 24 h. The biofilm (100 µL) was removed from the well plate, added to 900 µL sterile MilliQ water, and disrupted with pipetting and vortexing. Disrupted biofilms were serially diluted and spiral plated on TSA. Viability was assessed with colony counting. The minimum biofilm eradication concentration (MBEC) was defined as the lowest concentration of test agent required to reduce viability by 5-log (i.e., 10^8 to 10^3 CFU/mL).
The biofilm was then removed from its 96 well plate, added to a new 96 well plate containing tobramycin dissolved in PBS (100 µL), and incubated for 20 h. The biofilm was disrupted in 900 µL sterile MilliQ water with pipetting and vortexing, serially diluted, and spiral plated on TSA. Viability was assessed with colony counting.

AR 230 = assay: Nitric oxide pretreatment with planktonic bacteria; format: cell-based, P. aeruginosa; settings: AR 230, antibiotic 2000 µg/mL, NO-pretreatment 25% MIC 4 h
Method: (§2) After exposure, wells were serially diluted in sterile MilliQ water and spiral plated on TSA. Viability was assessed by colony counting.

AR 239 = assay: Nitric oxide pretreatment with planktonic bacteria; format: cell-based, P. aeruginosa; settings: AR 239, antibiotic 2000 µg/mL, NO-pretreatment 25% MIC 4 h
Method: as §2

PAK [1] = assay: Nitric oxide pretreatment with planktonic bacteria; format: cell-based, Pseudomonas aeruginosa; settings: antibiotic 2 µg/mL, NO-pretreatment 25% MIC 4 h
Method: as §2

PAK [2] = assay: Serial passaging resistance assay; format: cell-based, Pseudomonas aeruginosa
Method: as §1

In the case of `NC[C@H]1O[C@H](O[C@H]2[C@H](O)[C@@H](O[C@H]3O[C@H](CO)[C@@H](O)[C@H](N)[C@H]3O)[C@H](N)C[C@@H]2N)[C@H](N)C[C@@H]1O` [Tobramycin], the MICn (ATCC MRSA; ATCC MRSA, after n = 10 passages) is reported as 16000 µg/mL, the development of tobramycin-resistance (ATCC MRSA; MRSA, concomitant delivery with COS/NO at 25% of its MIC) is reported as “slowing or prevention” and the “change of tobramycin MIC on parallel exposures” value (ATCC MRSA; MRSA, tobramycin alone, serial passages) is reported as “increases”. For the same molecule, the MIC (ATCC MRSA; Staphylococcus aureus, MRSA, read-out: MIC0) was 2000 µg/mL (≈ 4280 µM), the “tobramycin susceptibility of biofilms after NO-pretreatment” value (P. aeruginosa biofilms) was “significantly more susceptible; also recorded: improved” and the Classification (AR 230) was “Synergistic”. For the same molecule, the “Log Difference in bacteria viability with vs without NO-pretreatment” value (shortened to “Log Difference … vs without NO-pretreatment”) (AR 230) was 3.54 log, the Classification (AR 239) was “Synergistic” and the “Log Difference … vs without NO-pretreatment” value (AR 239) was 2.27 log. For the same molecule, the Classification (PAK [1]) was “Synergistic”, the “Log Difference … vs without NO-pretreatment” value (PAK [1]) was 3.00 log and the development of tobramycin-resistance (PAK [2]; P. aeruginosa, concomitant delivery with COS/NO at 25% of its MIC) was “slowing or prevention”. The “change of tobramycin MIC on parallel exposures” value (PAK [2]; P. aeruginosa, tobramycin alone, serial passages) was “increases”, the MICn (PAK [2]; PAK, after n = 10 passages) was 16 µg/mL and the MIC (PAK [2]; Pseudomonas aeruginosa, read-out: MIC0) was 2 µg/mL (≈ 4.28 µM).
